{
  "source": "patent US4994482A",
  "about": "“Arylpyrazol derivatives as anti-platelet agents, compositions and use” (Bristol-Myers Squibb Company, priority 1990, dated 1991)",
  "data": [
    {"tested_on": "biolaser induced thrombosis (thrombus formation)", "test": "In vivo inhibition of biolaser induced thrombosis in rabbit ear chamber", "parameters": "species or system English lop-ear rabbits", "settings": "oral 1 mg/kg", "from_the_text": "(§1) The laser induced thrombosis method is a modification of the technique developed by Sanders, A. G., et al. in Brit. J Exp. Pathol., 1954, 35, 331 and Grant, L., et al. in Proc. Soc. Exp. Biol. Med., 1965, 119, 1123. A detailed description of this method has been described by Fleming, J. S., et al., in Platelets and Thrombosis, A. Scriabine and S. Sherry, eds., Baltimore, Univ. Park Press, pp. 247-262, 1974 and is hereby incorporated by reference.\n(§2) Briefly, Lucite ear chambers were chronically implanted in adult, English lop-ear rabbits. The animals were conditioned to lie quietly in the supine position. Localized microvascular injury was induced by focusing a single ruby laser beam through a microscope into the lumen of a vessel 10-60 μM in diameter. This evoked the formation of a small thrombus consisting of platelets accumulated around a core of one or two damaged red cells. Thrombus area was determined as a product of two perpendicular measurements made by using a micrometer eye piece. The mean thrombus area (μM^2) obtained for 10 trials in each rabbit served as a control value. The test compound was administered orally and post-dose trials were performed at selected times. Pharmacological activity was evaluated by comparing pre- and post-dose mean thrombus areas.", "values": [
      {"compound": "O=C(O)CCCCCCCCn1nc(-c2ccccc2)c(-c2ccccc2)c1-c1ccccc1", "note": "[Example 15, 3,4,5-Triphenyl-lH-pyrazol-1-nonanoic acid hydrate]", "inhibition of thrombus formation": "approximately 30%"}
    ]},
    {"tested_on": "biolaser induced thrombosis (thrombus formation)", "test": "In vivo inhibition of biolaser induced thrombosis in rabbit ear chamber", "parameters": "species or system English lop-ear rabbits", "settings": "oral 10 mg/kg", "from_the_text": "as §1, §2", "values": [
      {"compound": "O=C(O)CCCCCCCCn1nc(-c2ccccc2)c(-c2ccccc2)c1-c1ccccc1", "note": "[Example 15, 3,4,5-Triphenyl-lH-pyrazol-1-nonanoic acid hydrate]", "inhibition of thrombus formation": "over 60%"}
    ]},
    {"tested_on": "biolaser induced thrombosis (thrombus formation)", "test": "In vivo inhibition of biolaser induced thrombosis in rabbit ear chamber", "parameters": "species or system English lop-ear rabbits", "settings": "oral 30 mg/kg", "from_the_text": "as §1, §2", "values": [
      {"compound": "O=C(O)CCCCCCCCn1nc(-c2ccccc2)c(-c2ccccc2)c1-c1ccccc1", "note": "[Example 15, 3,4,5-Triphenyl-lH-pyrazol-1-nonanoic acid hydrate]", "inhibition of thrombus formation": "over 60%"}
    ]},
    {"tested_on": "human platelet-rich plasma (collagen-induced platelet aggregation)", "test": "In vitro inhibition of collagen-induced human platelet aggregation (Born aggregometer method)", "assay_type": "cell-based", "settings": "human PRP, 0.05 mL of a collagen suspension", "procedure": "(§3) The aggregometer method of Born, C. […] The human volunteer donor's arm is cleansed with 70% ethyl alcohol. A sterile 20 ml syringe and needle are used to withdraw 20 ml of blood.\n(§4) All glassware used for preparation of PRP is silicon treated. […] The various compounds tested were dissolved in dimethylsulfoxide (DMSO) so that 5 mcl added to the platelet rich plasma would yield the desired test concentration. Vehicle control trials were done and compared with aggregation induced in platelet rich plasma containing various concentrations of the test compounds. Dose response curves were obtained and Inhibitor Concentration IC50) values calculated.", "units": {"IC50": "µg/mL"}, "values": [
      {"compound": "COC(=O)CCCCCCCCn1nc(-c2ccccc2)c(-c2ccccc2)c1-c1ccccc1", "note": "[Example 14, Methyl 3,4,5-triphenyl-lH-pyrazol-1-nonanoate]", "IC50": 0.27},
      {"compound": "O=C(O)CCCC=CCCCn1nc(-c2ccccc2)c(-c2ccccc2)c1-c1ccccc1", "note": "[Example 10, (Z) and (E)-9-(3,4,5-Triphenyl-lH-pyrazol-1-yl)-5-nonenoic acid hydrate]", "IC50": 0.12},
      {"compound": "O=C(O)CCCCCCCCn1ncc(-c2ccccc2)c1-c1ccccc1", "note": "[Example 18, 4,5-Diphenyl-lH-pyrazol-1-nonanoic acid]", "IC50": 0.45},
      {"compound": "O=C(O)CCCCCCCCn1nc(-c2ccccc2)c(-c2ccccc2)c1-c1ccccc1", "note": "[Example 15, 3,4,5-Triphenyl-lH-pyrazol-1-nonanoic acid hydrate]", "IC50": 0.068},
      {"compound": "c1ccc(-c2nn(CCCCCCCCc3nn[nH]n3)c(-c3ccccc3)c2-c2ccccc2)cc1", "note": "[Example 40, 5-[8-(3,4,5-Triphenyl-lH-pyrazol-1-yl)octyl]-2 H-tetrazole]", "IC50": 0.052},
      {"compound": "O=C(O)CSCCCCCn1nc(-c2ccccc2)c(-c2ccccc2)c1-c1ccccc1", "note": "[Example 27, [[5-(3,4,5-Triphenyl-lH-pyrazol-1-yl)pentyl]thio]acetic acid]", "IC50": 0.16},
      {"compound": "O=C(O)CSCCCCCCn1nc(-c2ccccc2)c(-c2ccccc2)c1-c1ccccc1", "note": "[Example 21, [[6-(3,4,5-Triphenyl-lH-pyrazol-1-yl)hexyl]thio]acetic acid]", "IC50": 0.15},
      {"compound": "O=C(O)COCCCCCCn1nc(-c2ccccc2)c(-c2ccccc2)c1-c1ccccc1", "note": "[Example 4, [[6-(3,4,5-Triphenyl-lH-pyrazol-1-yl)hexyl]oxy]acetic acid]", "IC50": 0.096}
    ]},
    {"tested_on": "human platelet-rich plasma (ADP-induced platelet aggregation)", "test": "In vitro inhibition of ADP-induced human platelet aggregation (Born aggregometer method)", "assay_type": "cell-based", "settings": "Homo sapiens, read-out: IC50 vs. ADP", "procedure": "as §3, §4", "units": {"IC50": "µg/mL"}, "values": [
      {"compound": "OCCN(CCO)c1nc(N2CCCCC2)c2nc(N(CCO)CCO)nc(N3CCCCC3)c2n1", "note": "[dipyridamole, reference compound]", "IC50": "> 512"}
    ]},
    {"tested_on": "human platelet-rich plasma (ADP-induced platelet aggregation)", "test": "In vitro inhibition of ADP-induced human platelet aggregation (Born aggregometer method)", "assay_type": "cell-based", "settings": "human PRP, ADP 0.5 mcg/mL, read-out: IC50 - Human PRP vs:ADP", "procedure": "as §3, §4", "units": {"IC50": "µg/mL"}, "values": [
      {"compound": "COC(=O)CCCCCCCCn1nc(-c2ccccc2)c(-c2ccccc2)c1-c1ccccc1", "note": "[Example 14, Methyl 3,4,5-triphenyl-lH-pyrazol-1-nonanoate]", "IC50": 2},
      {"compound": "O=C(O)CCCC=CCCCn1nc(-c2ccccc2)c(-c2ccccc2)c1-c1ccccc1", "note": "[Example 10, (Z) and (E)-9-(3,4,5-Triphenyl-lH-pyrazol-1-yl)-5-nonenoic acid hydrate]", "IC50": 0.35},
      {"compound": "O=C(O)CCCCCCCn1nc(-c2ccccc2)c(-c2ccccc2)c1-c1ccccc1", "note": "[Example 8, 3,4,5-Triphenyl-lH-pyrazol-1-octanoic acid hydrate]", "IC50": 1.9},
      {"compound": "O=C(O)CCCCCCCn1ncc(-c2ccccc2)c1-c1ccccc1", "note": "[Example 44, 4,5-Diphenyl-lH-pyrazole-1-octanoic acid]", "IC50": 0.6},
      {"compound": "O=C(O)CCCCCCCCn1ncc(-c2ccccc2)c1-c1ccccc1", "note": "[Example 18, 4,5-Diphenyl-lH-pyrazol-1-nonanoic acid]", "IC50": 2.5},
      {"compound": "O=C(O)CCCCCCCCCn1nc(-c2ccccc2)c(-c2ccccc2)c1-c1ccccc1", "note": "[Example 36, 3,4,5-triphenyl-lH-pyrazole-1-decanoic acid hydrate]", "IC50": 3.5},
      {"compound": "O=C(O)CCCCCCCCn1nc(-c2ccccc2)c(-c2ccccc2)c1-c1ccccc1", "note": "[Example 15, 3,4,5-Triphenyl-lH-pyrazol-1-nonanoic acid hydrate]", "IC50": 0.16},
      {"compound": "O=C(O)C[S+]([O-])CCCCCCn1nc(-c2ccccc2)c(-c2ccccc2)c1-c1ccccc1", "note": "(stereo not shown) [Example 25, [[6-(3,4,5-Triphenyl-lH-pyrazol-1-yl)hexyl]sulfinyl]acetic acid hydrate]", "IC50": 3.2},
      {"compound": "O=C(O)CCCCCCCCn1cc(-c2ccccc2)c(-c2ccccc2)n1", "note": "[Example 17, 3,4-Diphenyl-lH-pyrazol-1-nonanoic acid hydrate]", "IC50": 1.5},
      {"compound": "c1ccc(-c2nn(CCCCCCCCc3nn[nH]n3)c(-c3ccccc3)c2-c2ccccc2)cc1", "note": "[Example 40, 5-[8-(3,4,5-Triphenyl-lH-pyrazol-1-yl)octyl]-2 H-tetrazole]", "IC50": 0.5},
      {"compound": "O=C(O)CSCCCCCn1nc(-c2ccccc2)c(-c2ccccc2)c1-c1ccccc1", "note": "[Example 27, [[5-(3,4,5-Triphenyl-lH-pyrazol-1-yl)pentyl]thio]acetic acid]", "IC50": 1.9},
      {"compound": "O=C(O)CSCCCCCCn1nc(-c2ccccc2)c(-c2ccccc2)c1-c1ccccc1", "note": "[Example 21, [[6-(3,4,5-Triphenyl-lH-pyrazol-1-yl)hexyl]thio]acetic acid]", "IC50": 0.41},
      {"compound": "O=C(O)COCCCCCCn1nc(-c2ccccc2)c(-c2ccccc2)c1-c1ccccc1", "note": "[Example 4, [[6-(3,4,5-Triphenyl-lH-pyrazol-1-yl)hexyl]oxy]acetic acid]", "IC50": 0.2}
    ]}
  ]
}
